The values below come from patent publication US7601868B2, “Amine derivative” (Takeda Pharmaceutical Company Limited, priority 2003, dated 2009).

Structures are written as SMILES.

In this assay the target is T1, SLC-1 (Homo sapiens, UniProt Q99705).
T1 construct: expressed in transfected cells; host or cells: CHO cells (human SLC-1 clone 57 / rat SLC-1 clone 44), membrane fraction
Put plainly: Antagonistic activity using GTPγS binding assay (SLC-1 expression CHO cell membrane fraction, MCH-stimulated). The assay is classed as biochemical, human/rat. The settings on record: [35S]-GTPγS binding to SLC-1 expression CHO cell membrane fraction in the presence of MCH, 25° C., 1 hr; read-out: Inhibitory activity (IC50: nM). The protocol: Determination of Antagonistic Activity of Test Compound Using GTP γ S Binding Assay
Using human SLC-1 expression CHO cell clone 57 and rat SLC-1 expression CHO cell clone 44 described in WO01/82925, SLC-1 expression CHO cell membrane fractions were prepared by the following method. In phosphate buffered saline (pH 7.4) supplemented with 5 mM EDTA (ethylenediamine tetraacetic acid) were suspended human and rat SLC-1 expression CHO cells (1×10^8) and centrifuged. Homogenate buffer (10 ml, 10 mM NaHCO3, 5 mM EDTA, pH 7.5) was added to the pellets of the cells and, using Polytron Homogeniser, the mixture was homogenated. The supernatant obtained after centrifugation at 400×g for 15 min was further centrifuged at 100,000×g for 1 hr to give precipitate of the membrane fraction. […]
The antagonistic activity of the test compound was determined as follows. […] Liquid scintillator (50 ml) was added to the glass filter and the residual radioactivity was determined by a liquid scintillation counter. Binding inhibition (%)=(radioactivity upon addition of test compound and MCH−radioactivity upon addition of DMSO solution)/(radioactivity upon addition of MCH−radioactivity upon addition of DMSO solution)×100
From the binding inhibition (%), IC50 of the test compound was calculated.

T1 sequence (Q99705 whole entry, species assumed): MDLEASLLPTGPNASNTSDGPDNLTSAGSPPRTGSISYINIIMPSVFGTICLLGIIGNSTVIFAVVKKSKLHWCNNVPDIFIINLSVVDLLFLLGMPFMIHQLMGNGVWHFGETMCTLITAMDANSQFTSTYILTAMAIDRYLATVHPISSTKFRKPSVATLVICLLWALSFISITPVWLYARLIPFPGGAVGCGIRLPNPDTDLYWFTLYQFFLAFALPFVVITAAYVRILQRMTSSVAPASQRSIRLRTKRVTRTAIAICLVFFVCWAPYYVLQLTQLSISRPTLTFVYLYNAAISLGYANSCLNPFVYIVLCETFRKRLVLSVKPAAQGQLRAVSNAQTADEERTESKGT

With `CC(c1ccc(CCNC(=O)c2ccc(-c3ccc(Cl)cc3)cc2)cc1)N1CCCCCC1` (stereo not shown) [Example 67, N-(2-{4-[1-(1-azepanyl)ethyl]phenyl}ethyl)-4′-chloro[1,1′-biphenyl]-4-carboxamide], the IC50 (in general, the concentration at which inhibition is half-maximal) is 3 nM.
